One data set is described as follows: Plasma stability assay. The format is in vitro ADME. Particulars: human plasma, 37°C, mean ± SEM; read-out: t 1/2 (min, Plasma). The protocol:
Fresh human plasma was obtained from healthy and consenting volunteers (ethics approval number: 2006000950). The peptides were dissolved in PBS containing 5% DMSO (1 mg/mL), and 300 µL aliquots were mixed with 300 µL of pre-warmed plasma and incubated at 37°C. At selected time points (5, 10, 20, 30, 40, 60, 90, and 120 min), samples (50 µL) were collected and plasma proteins precipitated by addition of acetonitrile (75 µL). After centrifugation (10,000 rpm, 10 minutes), the peptide content of the supernatant was analyzed by HPLC with a Vydac C18 column (4.6×250 mm, 5 µm) at a flow rate of 1 mL/min and a gradient of 100% A (0.1% TFA in water) to 100% B (0.1% TFA in acetonitrile/water 9∶1) over 30 minutes.

Data set [1] has as its target T1, MOP receptor (Homo sapiens, UniProt P35372).
T1 construct: SH-SY5Y cells, which endogenously expresses MOP and δ-opioid (DOP) receptors; host or cells: SH-SY5Y human neuroblastoma cells
The experiment in a line: Inhibition of forskolin-stimulated cAMP formation in SH-SY5Y cells. The class given is cell-based. On the procedure:
SH-SY5Y cells, which express MOP and DOP receptors, were seeded (10^5 cells/mL, 100 µL) in a 96-well plate and incubated overnight to reach 80% confluence. Culture medium supplemented with 30 µM forskolin was used make peptide solution (100 nM) and aliquots (100 µL) of each peptide were added to three wells. After incubation at 37°C for 30 minutes, the culture medium was removed and lysis buffer from a cAMP Biotrak EIA kit (Amersham, Buckinghamshire, UK) was added, followed by an anti-cAMP antibody. After incubation at 4°C for 2 hours, a cAMP peroxidase conjugate was added and the plate incubated for another hour at 4°C. Then, the cell lysate was incubated with a 3,3′5,5′-tetramethylbenzidine (TMB) substrate provided by the Biotrak EIA kit and finally […] sulfuric acid was added. Absorbance of each well was determined using a plate reader at 450 nm and compared with a cAMP standard curve (concentration 0–3.2 pmol). Data was represented as a percentage of the maximum cAMP response to forskolin, shown as a mean (±SEM) of three separate experiments each performed in triplicate (GraphPad Prism™ (v5.0) software).

Data set [2] in a line: Caco-2 cell homogenate stability assay. The class given is in vitro ADME, human. The settings on record: for half-life: human, Caco-2, pH 7.4, Caco-2 cell homogenate, mean ± SEM, read-out: t 1/2 (min, Caco-2). The protocol: A suspension of 5×10^4 Caco-2 cells in 100 µL culture medium was added to the wells of a 96-well cell culture plate. Culture medium supplemented with 1% penicillin/streptomycin (100 U/mL) was changed every second day.
After 21–28 days, the cells were washed with 0.2% EDTA (2×100 µL) and Hank's Balanced Salt Solution containing 25 mM 4-(2-hydroxyethyl)-1-piperazineethanesulfonic acid (HBSS-Hepes, pH 7.4; 3×100 µL). HBSS–Hepes buffer was added to each well (100 µL), and the cells were disrupted by two one-second pulses with a Sonics Vibracell ultrasonic processor set at 60% amplitude at 130 W. The cell debris was removed by centrifugation (2000 rpm, 5 minutes) and the protein content of three wells was determined using the Bio-Rad protein assay kit, by comparison with a standard curve generated from known concentrations of bovine serum albumin. The protein content of the cell homogenate was adjusted to 0.6–0.9 mg/mL in a clean 96-well plate.
The peptides were dissolved in HBSS–Hepes buffer containing 1% DMSO (dimethyl sulfoxide), and each peptide solution (200 µM, 100 µL) was added to three wells and the plate was incubated at 37°C in a shaker at 400 rpm. At pre-selected time points (5, 10, 15, 20, 30, 40, 50, 60, and 120 min), samples (10 µL) were collected and enzymatic digestion was stopped by addition of 5 µL TFA. These samples were then diluted with water (75.5 µl) and DMSO (9.5 µL) and analyzed by LC-MS to determine the concentration of peptide remaining in the solution.
LC-MS was carried out on a Luna Phenomenex C18 column (2.0×50 mm, 5 µm) with a gradient of 100% A (0.1% formic acid in water) to 100% B (0.1% formic acid in acetonitrile/water 9∶1) over 5.5 minutes at a flow rate of 0.3 mL/min. The mass spectrometer was set to selective ion monitoring in the positive ion electrospray mode. A standard curve was generated from standards containing known peptide concentrations, and used to determine the peptide concentration in the samples.

The target of data set [3] is T1, MOP receptor. Nature of the data set: SH-SY5Y receptor binding assay ([3H]DAMGO displacement from whole cells). Particulars: DPDPE 1 µM, read-out: K iμ. The protocol:
A suspension of SH-SY5Ycells (10^5 cells per well) was seeded into 24-well plates and incubated overnight. The cells were washed with PBS and pre-incubated with 300 µL binding buffer (50 mM Tris buffer, pH 7.4, 2% BSA). A mixture of [^3H]-DAMGO (100 µL, 15 nM), DPDPE (100 µL, 1 µM) and 100 µL aliquots of each peptide in a range of concentrations (0.1 nM to 100 µM) was added to each well and the plate was incubated at 37°C. An excess of [^3H]-DAMGO (1 µM) was used to determine non-specific binding and buffer (100 µL) was measured as the blank. After 60 minutes, the cells were washed with PBS and 1 M NaOH (0.5 mL) was used to lyse the cells. The radioactivity of the cell suspension was measured by scintillation counting (Liquid Scintillation Systems, BECKMAN LS3801, USA). Data analysis was performed using the one-site competition binding model (GraphPad Prism™ (v5.0) software).

A further data set deals with Caco-2 cell monolayers. The experiment in a line: Caco-2 cell permeability assay. The class given is in vitro ADME, human. The settings on record: for P app (×10^−7, cm/s): across Caco-2 cell monolayers, mean ± SEM; for increase in permeability (P app) compared to peptide 1: Caco-2 cell monolayers, vs 1 in the same experiment. On the procedure: (§1) A suspension of 10^5 Caco-2 cells (100 µL) in culture medium supplemented with 1% penicillin/streptomycin (100 U/mL) was pipetted into polycarbonate cell culture inserts (pore size 0.4 µm, 6.5 mm diameter, Transwell®) in a 24-well plate, and the same medium was also added to the basolateral chamber (0.6 mL). Medium in both chambers was changed every second day.
(§2) After 21–28 days, the integrity of the tight junctions and the monolayers was assessed by measuring the transepithelial electrical resistance (TEER) using the Millicell-ERS epithelial volt-ohmmeter system (Millipore Corporation). Wells that gave TEER values of 1500–4280 (Ωcm^2) were used for the experiment.
(§3) After the initial TEER test, the Caco-2 cell monolayers were washed with HBSS-Hepes buffer (3×) and then incubated with the same buffer at 37°C. After 30 minutes the buffer was removed from the apical chamber and 100 µL aliquots of peptides, dissolved to a concentration of 200 µM in HBSS-Hepes containing 1% DMSO, were added to at least three wells. As a further test of the Caco-2 cell monolayer integrity, radiolabelled [^14C]-D-mannitol (1.80 µCi) in HBSS-Hepes buffer was added to three wells. The plates were incubated in a shaker set to 400 rpm at 37°C, and samples (0.4 mL) were collected from the basolateral chamber at 30, 90, 120 and 150 minutes and replaced with the same volume of buffer. At the end of the experiment, 50 µL were collected from the apical chamber of each well. LC-MS quantification of the peptides was performed as described in Caco-2 cell homogenate stability assay. The radioactivity of the [^14C]-D-mannitol samples was quantified by liquid scintillation counting (Liquid Scintillation Systems, BECKMAN LS3801, USA), and the apparent permeability (P app) for each compound was calculated using the following equation: [drawing 1] dC/dt steady-state rate of change in the chemical concentration (M/s) or radiochemical concentration (dpm mL/s) in the receiver chamber
(§4) Vr volume of the receiver chamber (mL)
(§5) A surface area of the cell monolayers
(§6) C0 initial concentration in the donor chamber (M or dpm/mL)

A short description of data set [4]: Caco-2 cell permeability assay. The settings on record: human, Caco-2, pH 7.4, across Caco-2 cell monolayers, mean ± SEM. The format is in vitro ADME, human. The protocol:
as §1, §2, §3, §4, §5, §6

Data set [5] relates to gastrointestinal transit of a charcoal meal in rats. Nature of the data set: Charcoal test (gastrointestinal transit). The class given is in vivo, rat. On the procedure: (§7) • Castor oil-induced diarrhea test in rats The ability of test items to inhibit castor-oil induced diarrhea as an index of constipation was assessed. Prior to the start of experimentation, drug-naive rats weighing 200–250 g were fasted for 16 h with free access to water. Individually caged rats were acclimatized for 1 h without access to food or water prior to drug or vehicle administration. […] Rats were gavaged with 1 mL of castor oil five minutes after test item or vehicle administration. Presence or absence of diarrhea was recorded every hour according to a scoring system based on the weight of feces boli and the feces consistency. Weight was scored from 0 (no feces) to 3 (>3 g of feces) and consistency was scored from 0 (normal-shape feces) to 3 (shapeless feces with large amounts of liquid). When both weight of feces and the feces consistency were scored at ≥2, diarrhea was considered to be present. • Charcoal test The charcoal test was assessed in groups of drug-naive rats to measure gastrointestinal (GI) transit. […] The total length of the small intestine from the pylorus to the ileocaecal junction as well as the most distal point of migration of the charcoal meal was measured. The percentage of the distance which the charcoal meal travelled relative to the total length of the small intestine (GI propulsion) was calculated.

The subject of data set [6] is CCI-rat model of neuropathic pain. The experiment in a line: Antinociception in CCI-rat model of neuropathic pain (Von Frey paw withdrawal thresholds). The class given is in vivo. The settings on record: morphine i.v. at equi-effective dose, CCI-rats, p<0.001 vs vehicle.
Excerpt: Chronic constriction injury (CCI) of the sciatic nerve in the rat was used as a model of neuropathic pain and was induced according to the method of Bennett and Xie [21]. Briefly, rats were anesthetized with 3% isoflurane delivered in oxygen. A 7 mm segment of the left common sciatic nerve was exposed at mid-thigh level, proximal to the sciatic trifurcation. […] The surgical incision was closed by suturing the muscles and skin in layers. To prevent infection, topical antibiotic powder was applied to the wound. The day of CCI surgery was regarded as day 0. Rats were inspected daily considering posture of the affected hindpaw, exploring behavior, body weight, water intake, and signs of autotomy until experimentation day, which was 14 days post-surgery.
Paw withdrawal thresholds (PWT's), expressed in grams, were measured using a set of calibrated Von Frey filaments (Touch Test- North Coast, 800-821-9319). Animals were acclimatized for at least 15 min in wire mesh metabolic cages (20×20×17 cm). Von Frey filaments which delivered forces in the range 2–20 g at 2 g intervals were used according to the up-down method [20]. Filaments were applied to the plantar surface of the footpad of the hindpaw so that the filament bent slightly for 3 seconds. […]
For data set [7], the system named is castor oil-induced diarrhea in rats. Nature of the data set: Castor oil-induced diarrhea test in rats. The format is in vivo, rat. On the procedure: as §7
Where [8] appears, read: separate experiment [d] with 1 and 3 tested together.

Where two headings read alike, the source gives them in different places. Square brackets hold non-standard residues; d marks the D form. Peptide text beside a SMILES is read from it. ξ: configuration not given here. Dmt = Cc1cc(O)cc(C)c1C[C@H](N)C(=O)O; ξGly(octyl) = CCCCCCCCC(N)C(=O)O

T1 sequence (P35372 whole entry): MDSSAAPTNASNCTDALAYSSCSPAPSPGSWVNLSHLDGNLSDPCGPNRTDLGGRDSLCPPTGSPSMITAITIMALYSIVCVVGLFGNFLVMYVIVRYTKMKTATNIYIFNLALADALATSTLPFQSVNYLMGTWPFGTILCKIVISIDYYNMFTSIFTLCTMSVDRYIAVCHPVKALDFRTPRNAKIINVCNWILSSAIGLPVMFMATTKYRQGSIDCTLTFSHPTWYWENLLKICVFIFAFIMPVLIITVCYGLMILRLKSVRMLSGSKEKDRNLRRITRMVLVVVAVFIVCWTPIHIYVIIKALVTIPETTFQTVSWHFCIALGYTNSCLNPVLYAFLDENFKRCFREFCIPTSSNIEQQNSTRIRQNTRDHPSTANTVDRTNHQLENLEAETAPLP

Turning to `Cc1cc(O)cc(C)c1C[C@H](N)C(=O)N1CCC[C@H]1C(=O)N[C@@H](Cc1c[nH]c2ccccc12)C(=O)N[C@@H](Cc1ccccc1)C(N)=O` [Compound 2], the results for the half-life (in the data set “Plasma stability assay”; in data set [2] (37°C)) were 4.2 ± 1.5 min and 24.1 ± 3.6 min, respectively. Moreover, the 50% inhibitory concentration (IC50) at MOP receptor [1] worked out at 0.3 ± 0.02 nM. Further, the Ki on MOP receptor [3] (mean ± SEM) is 0.06 ± 0.01 nM. Moreover, the “P app (×10^−7, cm/s)” value in the data set on Caco-2 cell monolayers (LC/MS) is 2.5 (±0.3) ×10^−7 cm/s. The Papp A→B at 150 min, 200 µM in data set [4] (LC/MS) is 2.5 ± 0.3 nm/s.

Turning to `CCCCCCCCC(N)C(=O)N[C@@H](Cc1c(C)cc(O)cc1C)C(=O)N1CCC[C@H]1C(=O)N[C@@H](Cc1c[nH]c2ccccc12)C(=O)N[C@@H](Cc1ccccc1)C(N)=O` (stereo partly shown) [Compound 4] (H-[ξGly(octyl)][Dmt]PWF-NH2), the half-life was found to be 41.4 ± 3.3 min in “Plasma stability assay” and 96.3 ± 8.3 min in data set [2] (37°C). Also, the IC50 against MOP receptor [1] was 1.3 ± 0.22 nM. In addition, in data set [2] (vs peptide 1 tested in the same experiment), the “increase in Caco-2 cell homogenate stability compared with parent peptide 1” value is reported as 34 fold. Further, the Ki at MOP receptor [3] (mean ± SEM) was found to be 0.5 nM. In addition, the “increase in permeability (P app) compared to peptide 1” value in the data set on Caco-2 cell monolayers stood at 62 fold. The “P app (×10^−7, cm/s)” value in the data set on Caco-2 cell monolayers (LC/MS) is 12.4 (±4.7) ×10^−7 cm/s. In data set [4] (LC/MS), the Papp A→B at 150 min, 200 µM was 12.4 ± 4.7 nm/s.

Turning to `CN1CC[C@]23c4c5ccc(O)c4O[C@H]2[C@@H](O)C=C[C@H]3[C@H]1C5` [morphine, reference compound], in data set [5] (i.v. 2 µmol/kg, mean ± SEM, p<0.001), the “GI propulsion (%)” value amounted to 29.5±4.6%. Besides, in data set [6], the “antinociception in the contralateral (uninjured) hindpaw” value was “produced significant antinociceptive activity”. In [7] (i.v. 2 µmol/kg, p<0.001), the “inhibition of castor oil-induced diarrhea” value was “inhibited castor oil-induced diarrhea significantly”.

Consider `NC(=O)[C@H](Cc1ccccc1)NC(=O)[C@H](Cc1c[nH]c2ccccc12)NC(=O)[C@@H]1CCCN1C(=O)[C@@H](N)Cc1ccc(O)cc1` [Compound 1, Tyr-Pro-Trp-Phe-NH2, reference compound], for which the “P app (×10^−7, cm/s)” value in the data set with Caco-2 cell monolayers (LC/MS) is given as 0.2 (±0.02) ×10^−7 cm/s. Also, the Papp A→B at 150 min, 200 µM in data set [4] (LC/MS) was 0.2 ± 0.02 nm/s; in data set [4] (setting [8]), 1 ± 0.34 nm/s.

With `CCCCCCCCC(N)C(=O)N[C@@H](Cc1ccc(O)cc1)C(=O)N1CCC[C@H]1C(=O)N[C@@H](Cc1c[nH]c2ccccc12)C(=O)N[C@@H](Cc1ccccc1)C(N)=O` (stereo partly shown) [Compound 3] (H-[ξGly(octyl)]YPWF-NH2), the “GI propulsion (%)” value in data set [5] (i.v. 16 µmol/kg, mean (± SEM)) is given as 64.3 (±3.0) %. At MOP receptor [1], this molecule returned a half-inhibitory concentration (IC50) of 31.4 ± 1.45 nM. For the same molecule, in [2] (setting [8]), the half-life came out at 77.4 ± 7.1 min. The Ki on MOP receptor [3] (separate experiment [d] with 1 and 3, mean ± SEM) came to 25.7 ± 1.3 nM. In [7] (i.v. doses up to 16 µmol/kg, p>0.05), the “inhibition of castor oil-induced diarrhea” value is recorded as “No significant inhibition”. The “increase in permeability (P app) compared to peptide 1” value with Caco-2 cell monolayers is reported as approximately 90 fold. The “P app (×10^−7, cm/s)” value in the data set with Caco-2 cell monolayers (setting [8]) is 90.1 (±12.2) ×10^−7 cm/s. Further, the apparent permeability from apical to basolateral (Papp A→B) at 150 min, 200 µM in data set [4] (setting [8]) was 90.1 ± 12.2 nm/s.

(Values after paper PMC3422351, “Lipo-Endomorphin-1 Derivatives with Systemic Activity against Neuropathic Pain without Producing Constipation” (PLoS ONE, 2012).)
